Reference: patent publication US9233979B2, “Compounds that are ERK inhibitors” (Merck Sharp & Dohme Corp., priority 2012, dated 2016)

target: phosphorylated active hERK2 enzyme (Homo sapiens (Human), UniProt P28482); experiment: Active Human ERK2 (hERK2) Activity Assay (IMAP-FP); format: biochemical; conditions: Table 5, 0.5 nM hERK2, 30 μM ATP, 10 point titration, read-out: AERK2 IC50
Description: Assays Active Human ERK2 (hERK2) Activity Assay:
Activated ERK2 activity was determined in an IMAP-FP assay (Molecular Devices). […] The final reaction in each well of 25 μL consists of 0.5 nM hERK2, 900 nM unlabeled peptide, 80 nM labeled-peptide, and 30 μM ATP. Phosphorylation reactions were allowed to proceed for 60 minutes and were immediately quenched by the addition of 60 μL IMAP detection beads (1:1000 dilutions) in IMAP binding buffer (Molecular Devices) with 24 mM NaCl. Plates were read on EnVision reader after 60 minutes binding equilibration using Fluorescence Polarization protocol (Perkin Elmer).

Sequence of phosphorylated active hERK2 enzyme (P28482 whole entry): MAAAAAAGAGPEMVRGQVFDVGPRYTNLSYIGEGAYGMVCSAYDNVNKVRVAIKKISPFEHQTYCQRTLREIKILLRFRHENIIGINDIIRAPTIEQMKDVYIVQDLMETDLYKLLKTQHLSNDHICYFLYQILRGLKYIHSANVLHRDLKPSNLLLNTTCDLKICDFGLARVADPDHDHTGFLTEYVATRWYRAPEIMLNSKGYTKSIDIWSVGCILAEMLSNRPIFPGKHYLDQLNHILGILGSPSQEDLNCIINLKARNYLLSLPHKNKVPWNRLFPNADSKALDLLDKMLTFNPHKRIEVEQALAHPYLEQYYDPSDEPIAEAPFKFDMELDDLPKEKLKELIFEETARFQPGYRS

Row | IC50 [nM] | SMILES
1 | 88.8 | C[C@@H](NC(=O)Nc1cc2[nH]nc(NS(=O)(=O)CC3CC3)c2cn1)c1ccccc1 [Example 55, 1-cyclopropyl-N-[6-({[(1R)-1-phenylethyl]carbamoyl}amino)-1H-pyrazolo[4,3-c]pyridin-3-yl]methanesulfonamide]
2 | 191 | C[C@@H](NC(=O)Nc1cc2[nH]nc(NS(=O)(=O)C3CNC3)c2cn1)c1ccccc1 [Example 56]
3 | 3.05 | CCNc1n[nH]c2c(F)c(NC(=O)N[C@H](C)c3ccccc3)ncc12 [Example 57, (R)-1-(3-(Ethylamino)-7-fluoro-1H-pyrazolo[4,3-c]pyridin-6-yl)-3-(1-phenylethyl)urea]
4 | 6.43 | CC(=O)Nc1n[nH]c2c(F)c(NC(=O)N[C@H](C)c3ccccc3)ncc12 [Example 58, (R)—N-(7-Fluoro-6-(3-(1-phenylethyl)ureido)-1H-pyrazolo[4,3-c]pyridin-3-yl)acetamide]
5 | 6.47 | C[C@@H](NC(=O)Nc1ncc2c(N)n[nH]c2c1F)c1ccccc1 [Example 59, (R)-1-(3-Amino-7-fluoro-1H-pyrazolo[4,3-c]pyridin-6-yl)-3-(1-phenylethyl)urea]
6 | 38.8 | CCNc1n[nH]c2c(C)c(NC(=O)N[C@H](C)c3ccccc3)ncc12 [Example 60, (R)-1-(3-(Ethylamino)-7-methyl-1H-pyrazolo[4,3-c]pyridin-6-yl)-3-(1-phenylethyl)urea]

same assay, conditions: Table 6, 0.5 nM hERK2, 30 μM ATP, 10 point titration, read-out: AERK2 IC50

Row | IC50 [nM] | SMILES
7 | 8.8 | Cc1ccc(Nc2n[nH]c3cc(NC(=O)N[C@H](C)c4ccccc4)ncc23)cn1 [Example 61, 1-{3-[(6-methylpyridin-3-yl)amino]-1H-pyrazolo[4,3-c]pyridin-6-yl}-3-[(1R)-1-phenylethyl]urea]
8 | 14.7 | Cc1cc(Nc2n[nH]c3cc(NC(=O)N[C@H](C)c4ccccc4)ncc23)ccn1 [Example 62, 1-{3-[(2-methylpyridin-4-yl)amino]-1H-pyrazolo[4,3-c]pyridin-6-yl}-3-[(1R)-1-phenylethyl]urea]
9 | 5.8 | C[C@@H](NC(=O)Nc1cc2[nH]nc(N3CCc4scnc4C3)c2cn1)c1ccc(F)cc1 [Example 63, 1-[3-(6,7-dihydro[1,3]thiazolo-[4,5-c]pyridin-5(4H)-yl)-1H-pyrazolo[4,3-c]pyridin-6-yl]-3-[(1R)-1-(4-fluorophenyl)ethyl]-urea]
10 | 5.6 | C[C@@H](O)[C@@H](NC(=O)Nc1cc2[nH]nc(N3CCc4scnc4C3)c2cn1)c1ccccc1 [Example 64, 1-[3-(6,7-dihydro[1,3]thiazolo-[4,5-c]pyridin-5(4H)-yl)-1H-pyrazolo[4,3-c]pyridin-6-yl]-3-[(1S,2R)-2-hydroxy-1-phenylpropyl]urea]
11 | 365 | COC(=O)N[C@H](C(=O)Nc1n[nH]c2cc(NC(=O)N[C@H](C)c3ccc(F)cc3)ncc12)C1CCOCC1 [Example 65, methyl [(1S)-2-{[6-({[(1R)-1-(4-fluoro-phenyl)ethyl]carbamoyl}-amino)-1H-pyrazolo[4,3-c]-pyridin-3-yl]amino}-2-oxo-1-(tetrahydro-2H-pyran-4-yl)-ethyl]carbamate]
12 | 31.6 | COC(=O)N[C@H](C(=O)Nc1n[nH]c2cc(NC(=O)N[C@H](C)c3ccc(F)cc3)ncc12)C(C)C [Example 66, methyl [(1S)-1-{[6-({[(1R)-1-(4-fluoro-phenyl)ethyl]-carbamoyl}-amino)-1H-pyrazolo[4,3-c]-pyridin-3-yl]-carbamoyl}-2-methylpropyl]-carbamate]
13 | 0.7 | CCNc1n[nH]c2cc(NC(=O)N[C@H](CO)c3ccccc3)ncc12 [Example 67, 1-[3-(ethylamino)-1H-pyrazolo[4,3-c]pyridin-6-yl]-3-[(1S)-2-hydroxy-1-phenylethyl]urea]
14 | 0.5 | C[C@@H](NC(=O)Nc1cc2[nH]nc(N)c2c(CO)n1)c1ccccc1 [Example 68, (R)-1-(3-amino-4-(hydroxymethyl)-1H-pyrazolo[4,3-c]pyridin-6-yl)-3-(1-phenylethyl)urea]
15 | 1.5 | COCc1nc(NC(=O)N[C@H](C)c2ccccc2)cc2[nH]nc(N)c12 [Example 69, (R)-1-(3-amino-4-(methoxymethyl)-1H-pyrazolo[4,3-c]pyridin-6-yl)-3-(1-phenylethyl)urea]
